The target in test [1] is hKv1.3 (Homo sapiens, UniProt P22001). The experiment in a line: hKv1.3 % inhibition at 1 uM (Table 1). In kind it is cell-based. The conditions noted are these: for inhibition at 1 µM: read-out: hKv1.3 % inh. 1 uM.
The target in test [2] is hKv1.5 (Homo sapiens, UniProt P22460). The experiment in a line: hKv1.5 % inhibition at 300 nM (Table 1). Format: cell-based. The conditions noted are these: for inhibition at 0.3 µM: read-out: hKv1.5 % inh. 300 nM.
Test [3] relates to delayed-type hypersensitivity (DTH) response. The following applies: DTH model in vivo; cited from earlier work.

No end group written: not given here.

Chain of hKv1.5 (P22460 whole entry): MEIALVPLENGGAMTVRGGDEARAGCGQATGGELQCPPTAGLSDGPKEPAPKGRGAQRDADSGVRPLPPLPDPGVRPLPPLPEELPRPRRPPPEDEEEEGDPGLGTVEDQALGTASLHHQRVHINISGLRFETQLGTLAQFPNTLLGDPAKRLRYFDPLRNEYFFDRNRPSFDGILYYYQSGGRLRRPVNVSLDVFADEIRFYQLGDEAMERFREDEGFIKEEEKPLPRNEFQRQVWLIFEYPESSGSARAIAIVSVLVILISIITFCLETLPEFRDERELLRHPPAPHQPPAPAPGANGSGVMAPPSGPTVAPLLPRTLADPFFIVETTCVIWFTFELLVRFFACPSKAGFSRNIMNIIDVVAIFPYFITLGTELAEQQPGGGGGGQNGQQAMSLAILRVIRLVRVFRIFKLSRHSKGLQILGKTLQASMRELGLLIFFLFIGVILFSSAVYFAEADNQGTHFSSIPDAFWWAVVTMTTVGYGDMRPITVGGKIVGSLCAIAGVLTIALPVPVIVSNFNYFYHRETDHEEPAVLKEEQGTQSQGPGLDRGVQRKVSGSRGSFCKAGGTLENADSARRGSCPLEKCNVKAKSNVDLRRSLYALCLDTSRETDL
Chain of hKv1.3 (P22001 whole entry): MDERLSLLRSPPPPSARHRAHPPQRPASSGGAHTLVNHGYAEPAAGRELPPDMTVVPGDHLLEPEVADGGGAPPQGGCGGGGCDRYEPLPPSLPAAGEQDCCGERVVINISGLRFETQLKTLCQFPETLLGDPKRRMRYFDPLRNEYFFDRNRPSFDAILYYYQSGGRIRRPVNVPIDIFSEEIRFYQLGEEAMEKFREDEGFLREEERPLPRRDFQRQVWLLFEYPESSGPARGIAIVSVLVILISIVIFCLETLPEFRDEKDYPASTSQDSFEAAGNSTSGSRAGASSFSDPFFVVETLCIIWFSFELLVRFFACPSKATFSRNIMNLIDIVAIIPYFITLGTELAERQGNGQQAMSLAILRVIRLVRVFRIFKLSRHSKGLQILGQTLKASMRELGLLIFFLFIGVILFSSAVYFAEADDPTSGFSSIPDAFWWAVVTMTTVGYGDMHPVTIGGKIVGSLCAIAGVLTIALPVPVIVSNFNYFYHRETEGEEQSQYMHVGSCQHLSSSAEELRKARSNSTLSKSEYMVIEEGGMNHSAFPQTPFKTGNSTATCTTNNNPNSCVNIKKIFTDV

“1-Methyl-1H-imidazole-4-sulfonic acid (4-chloro-benzyl)-(2-ethyl-1-oxo-2,3-dihydro-1H-isoindol-4-yl)-amide [Example 21]”: in test [1], the “hKv1.3 % inh. 1 uM” value is listed as 69.8%. Moreover, the “hKv1.5 % inh. 300 nM” value in test [2] was 23.8%.

For the compound `C=C1C[C@@]2(O)[C@@H]3CC[C@@]4(C)[C@@H]5C=CC(=O)OC[C@]5(C(C)OC(C)=O)[C@@H](OC(C)=O)[C@@H](OC(C)=O)[C@@H]4[C@@]3(C)[C@H](OC(C)=O)[C@H](OC(C)=O)[C@@]2(C)C2(C(=O)OC)O[C@H]12` (stereo partly shown) [Correolide], the “suppression of DTH response” value in test [3] is “effective”.

In the case of `CCN1CCc2ccc(N(Cc3ccc(Cl)cc3)S(=O)(=O)c3ccn(C)n3)cc2C1=O` [Example 1, 1-Methyl-1H-pyrazole-3-sulfonic acid (4-chloro-benzyl)-(2-ethyl-1-oxo-1,2,3,4-tetrahydro-isoquinolin-7-yl)-amide], the inhibition at 1 µM in test [1] is 99.6%. The inhibition at 0.3 µM in test [2] stood at 82.4%.

Regarding `CCN1Cc2ccc(N(Cc3ccc(Cl)cc3)S(=O)(=O)c3cccnc3)cc2C1=O` [Example 2, Pyridine-3-sulfonic acid (40chloro-benzyl)-(2-ethyl-3-oxo-2,3-dihydro-1H-isoindol-5-yl)-amide], the “hKv1.3 % inh. 1 uM” value in test [1] was found to be 97.2%. Further, the “hKv1.5 % inh. 300 nM” value in test [2] is on record as 65.0%.

With `CCN1Cc2ccc(N(Cc3ccc(Cl)cc3)S(=O)(=O)c3ccn(C)n3)cc2C1=O` [Example 4, 1-Methyl-1H-pyrazole-3-sulfonic acid (4-chloro-benzyl)-(2-ethyl-3-oxo-2,3-dihydro-1H-isoindol-5-yl)-amide], the inhibition at 1 µM in test [1] came to 96.6%. The inhibition at 0.3 µM in test [2] worked out at 63.8%.

As for `O=C1c2cc(N(Cc3ccc(Cl)cc3)S(=O)(=O)c3cccnc3)ccc2CCN1CCO` [Example 5, Pyridine-3-sulfonic acid (4-chloro-benzyl)-[2-(2-hydroxy-ethyl)-1-oxo-1,2,3,4-tetrahydro-isoquinolin-7-yl]-amide], the inhibition at 1 µM in test [1] amounted to 96.4%. Moreover, the inhibition at 0.3 µM in test [2] was 76%.

Take `CCN1CC(C)(C)c2ccc(N(Cc3ccc(Cl)cc3)S(=O)(=O)c3cn(C)cn3)cc2C1=O` [Example 6, 1-Methyl-1H-imidazole-4-sulfonic acid (4-chloro-benzyl)-(2-ethyl-4,4-dimethyl-1-oxo-1,2,3,4-tetrahydro-isoquinolin-7-yl)-amide]: in test [1], the inhibition at 1 µM was found to be 96.1%. Also, the inhibition at 0.3 µM in test [2] came out at 70.1%.

In the case of `Cn1ccc(S(=O)(=O)N(Cc2ccc(Cl)cc2)c2ccc3c(c2)C(=O)NCC3)n1` [Example 7, 1-Methyl-1H-pyrazole-3-sulfonic acid (4-chloro-benzyl)-(1-oxo-1,2,3,4-tetrahydro-isoquinolin-7-yl)-amide], the inhibition at 1 µM in test [1] is 95.5%. For the same compound, in test [2], the inhibition at 0.3 µM was 42.6%.

For `N#Cc1cccc(S(=O)(=O)N(Cc2ccc(Cl)cc2)c2ccc3c(c2)C(=O)NCC3)c1` [Example 8, N-(4-Chloro-benzyl)-3-cyano-N-(1-oxo-1,2,3,4-tetrahydro-isoquinolin-7-yl)-benzenesulfonamide], the inhibition at 1 µM in test [1] is 94.6%. Also, the inhibition at 0.3 µM in test [2] stood at 91.2%.

With `CN1CCc2ccc(N(Cc3ccc(Cl)cc3)S(=O)(=O)c3ccn(C)n3)cc2C1=O` [Example 9, 1-Methyl-1H-pyrazole-3-sulfonic acid (4-chloro-benzyl)-(2-methyl-1-oxo-1,2,3,4-tetrahydro-isoquinolin-7-yl)-amide], the inhibition at 1 µM in test [1] amounted to 94.5%. The inhibition at 0.3 µM in test [2] turned out to be 76.4%.

For the compound `Cn1ccc(S(=O)(=O)N(Cc2ccc(Cl)cc2)c2ccc3c(c2)C(=O)N(CCO)CC3)n1` [Example 10, 1-Methyl-1H-pyrazole-3-sulfonic acid (4-chloro-benzyl)-[2-(2-hydroxy-ethyl)-1-oxo-1,2,3,4-tetrahydro-isoquinolin-7-yl]-amide], in test [1], the inhibition at 1 µM was found to be 94.2%. Further, the inhibition at 0.3 µM in test [2] came out at 47.1%.

Take `CCN1Cc2ccc(N(Cc3ccc(Cl)cc3)S(=O)(=O)c3cccc(C#N)c3)cc2C1=O` [Example 11, N-(4-Chloro-benzyl)-3-cyano-n-(2-ethyl-3-oxo-2,3-dihydro-1H-isoindol-5-yl)-benzene sulfonamide]: the “hKv1.3 % inh. 1 uM” value in test [1] came out at 93.8%. Besides, the “hKv1.5 % inh. 300 nM” value in test [2] came to 86.9%.

With `CCN1Cc2cc(N(Cc3ccc(Cl)cc3)S(=O)(=O)c3cccc(C#N)c3)ccc2C1=O` [Example 12, N-(4-Chloro-benzyl)-3-cyano-N-(2-ethyl-1-oxo-2,3-dihydro-1H-isoindol-5-yl) benzene sulfonamide], the “hKv1.3 % inh. 1 uM” value in test [1] amounted to 93.0%. Moreover, the “hKv1.5 % inh. 300 nM” value in test [2] was 63.2%.

On to `O=C1NCCc2ccc(N(Cc3ccc(Cl)cc3)S(=O)(=O)c3cccnc3)cc21` [Example 13, Pyridine-3-sulfonic acid (4-chloro-benzyl)-(1-oxo-1,2,3,4-tetrahydro-isoquinolin-7-yl)-amide], for which, in test [1], the inhibition at 1 µM turned out to be 90.5%. Also, the inhibition at 0.3 µM in test [2] came to 36%.

Regarding `CCN1Cc2ccc(N(Cc3ccc(Cl)cc3)S(=O)(=O)c3cn(C)cn3)cc2C1=O` [Example 14, 1-Methyl-1H-imidazole-4-sulfonic acid (4-chloro-benzyl)-(2-ethyl-3-oxo-2,3-dihydro-1H-isoindol-5-yl)-amide], the inhibition at 1 µM in test [1] is 89.7%. The inhibition at 0.3 µM in test [2] is 27.1%.

As for `CC1(C)CNC(=O)c2cc(N(Cc3ccc(Cl)cc3)S(=O)(=O)c3cccnc3)ccc21` [Example 15], the “hKv1.3 % inh. 1 uM” value in test [1] stood at 88.9%. For the same compound, in test [2], the “hKv1.5 % inh. 300 nM” value is given as 70.0%.

On to `Cn1ccc(S(=O)(=O)N(Cc2ccc(Cl)cc2)c2ccc3c(c2)C(=O)NCC3(C)C)n1` [Example 16, 1-Methyl-1H-pyrazole-3-sulfonic acid (4-chloro-benzyl)-(4,4-dimethyl-1-oxo-1,2,3,4-tetrahydro-isoquinolin-7-yl)-amide], for which the inhibition at 1 µM in test [1] is 88.3%. Moreover, in test [2], the inhibition at 0.3 µM stood at 64.2%.

Consider `CC(C)N1C(=O)c2ccc(N(Cc3ccc(Cl)cc3)S(=O)(=O)c3cn(C)cn3)cc2C1=O` [Example 17, 1-Methyl-1H-imidazole-4-sulfonic acid (4-chloro-benzyl)-(2-isopropyl-1,3-dioxo-2,3-dihydro-1-H-isoindol-5-yl)-amide], for which, in test [1], the “hKv1.3 % inh. 1 uM” value was 79.7%. Also, the “hKv1.5 % inh. 300 nM” value in test [2] is on record as 58.0%.

For the compound `CCN1Cc2cc(N(Cc3ccc(Cl)cc3)S(=O)(=O)c3ccn(C)n3)ccc2C1=O` [Example 18, 1-Methyl-1H-pyrazole-3-sulfonic acid (4-chloro-benzyl)-(2-ethyl-1-oxo-2,3-dihydro-1H-isoindol-5-yl)-amide], the inhibition at 1 µM in test [1] came out at 75.2%. In test [2], the inhibition at 0.3 µM came out at 77.3%.

On to `CCN1CCc2cc(N(Cc3ccccc3)S(=O)(=O)c3ccn(C)n3)ccc2C1=O` [Example 19, 1-Methyl-1H-pyrazole-3-sulfonic acid benzyl (2-ethyl-1-oxo-1,2,3,4-tetrahydro-isoquinolin-6-yl)-amide], for which, in test [1], the “hKv1.3 % inh. 1 uM” value turned out to be 74.3%. The “hKv1.5 % inh. 300 nM” value in test [2] is given as 25.4%.

On to `Cn1cnc(S(=O)(=O)N(Cc2ccc(Cl)cc2)c2ccc3c(c2)C(=O)NCC3(C)C)c1` [Example 20, 1-Methyl-1H-imidazole-4-sulfonic acid (4-chloro-benzyl)-(4,4-dimethyl-1-oxo-1,2,3,4-tetrahydro-isoquinolin-7-yl)-amide], for which the inhibition at 1 µM in test [1] came out at 72.6%. In addition, in test [2], the inhibition at 0.3 µM came out at 34.1%.

As to `CCN1Cc2cc(N(Cc3ccc(Cl)cc3)S(=O)(=O)c3cn(C)cn3)ccc2C1=O` [Example 22, 1-Methyl-1H-imidazole-4-sulfonic acid (4-chloro-benzyl)-(2-ethyl-1-oxo-2,3-dihydro-1H-isoindol-5-yl)-amide], the inhibition at 1 µM in test [1] was 67.9%. Besides, in test [2], the inhibition at 0.3 µM was determined as 30.6%.

Consider `CCN1CCc2cc(N(Cc3ccccc3)S(=O)(=O)c3cn(C)cn3)ccc2C1=O` [Example 23, 1-Methyl-1H-imidazole-4-sulfonic acid benzyl-(2-ethyl-1-oxo-1,2,3,4-tetrahydro-isoquinolin-6-yl)-amide], for which the inhibition at 1 µM in test [1] stood at 58%. In addition, in test [2], the inhibition at 0.3 µM amounted to 26.5%.

Consider `O=c1ccc2c(OCCCCOc3ccccc3)c3ccoc3cc2o1` [PAP-1], for which the “suppression of DTH response” value in test [3] is “effective”.

Consider “N-(4-Chloro-benzyl)-3-cyano-N-(1-oxo-1,2,3,4-tetrahydro-isoquinolin-7-yl)-benzenesulfonamide [Example 3]”, for which the “hKv1.3 % inh. 1 uM” value in test [1] is 97.2%. In test [2], the “hKv1.5 % inh. 300 nM” value was determined as 87.8%.

For the compound “margatoxin (TIINVKCTSPKQCLPPCKAQFGQSAGAKCMNGKCKCYPH; ends and bridges not checked; cysteine pairing not given here; UniProt P40755 1-39, looked up) [MgTX]”, in test [3], the “suppression of DTH response” value is recorded as “effectively suppressed”.

The values are drawn from patent publication US8399481B2, “Compounds” (Xention Ltd, priority 2009, dated 2013).
